Data as given in patent US20220125897A1, “Antithrombin-III Treatment of Traumatic Brain Injury” (THE TRUSTEES OF THE UNIVERSITY OF PENNSYLVANIA, priority 2020, published 2022).

Experiments:
[1] = system: CD1 mice, controlled cortical impact (CCI) severe TBI model; assay: Morris water maze spatial learning trials; format: in vivo; settings: ±SEM
Procedure: Experimental procedures were conducted with the approval of the University of Pennsylvania Institutional Animal Care and Use Committee. CD1 adult male mice (25-30 g) (Charles River Laboratories, Wilmington, Mass.) were acclimatized in standard housing with water and chow ad libitum for 7 days before experiments after which they underwent sham craniotomy or craniotomy accompanied by controlled cortical impact (CCI), a well-validated severe TBI rodent model (Pascual et al., Am J Surg. 2013;206(6):840-846; Smith et al., J Neurotrauma. 1995; 12(2):169-178). Mice were anesthetized with intraperitoneal ketamine (Hospira, Lake Forest, Ill.), xylazine (Akorn, Decatur, Ill.), and acepromazine (Boehringer Ingelheim, St. Joseph, Mo.) (100, 10, 1 mg/kg, respectively) followed by subcutaneous bupivacaine (0.5 mg/mL) for longer-term analgesia. After creation of a left-sided, 4-mm craniotomy between bregma and lambda sutures, the exposed left parietotemporal cortex was injured via a controlled cortical impactor (AMS201; AmScien Instruments, Richmond, Va.). […] Doses were administered 0.5 and 24 hours after CCI (FIG. 1) as determined by previous published reports and the manufacturer's recommendations (ElSaadani et al., J Trauma Acute Care Surg. 2021; 90(2):274-280; Uchiba et al., Thromb Res. 1998; 89(5):233-241; Uchiba et al., Semin Thromb Hemost. 1997; 23(6):583-590). […]
(§1) Learning and memory were evaluated in a Morris water maze (MWM) using a previously published protocol (Vorhees et al., Nat Protoc. 2006; 1(2):848-858; Jacovides et al., J Trauma Acute Care Surg. 2019; 87(3):552-558). […] All swimming trials were conducted and scored by the same operator, at the same time of day on all experiment days incorporating a computerized video-tracking and recording system over the pool to facilitate analysis (Ethovision; Noldus, Leesburg, Va.). […]
On postcraniotomy days 9 to 13, daily spatial learning trials evaluated the animals' ability to use environmental visual cues to locate and reach the platform. […]

[2] = system: CD1 mice, controlled cortical impact (CCI) severe TBI model; assay: Pial intravital microscopy: FITC-albumin leakage (microvascular permeability); format: in vivo; settings: for Cerebrovascular FITC-albumin leakage: 48 hours after CCI, doses 0.5 and 24 hours after CCI, ±SEM
Procedure: (§2) Procedures received approval from the University of Pennsylvania Institutional Animal Care and Use Committee. CD1 adult male mice (25-30 g) (Charles River Laboratories; Wilmington, Mass.) were acclimated in standard housing with ad libitum water and chow for 5 days before experiments and immediately after recovery from brain injury. Mice underwent controlled cortical impact (CCI) or sham craniotomy (SHAM) and then received one of three agents: 1) subcutaneous enoxaparin (ENX, 1.5 mg/kg) (Winthrop, Sanofi-Aventis; Bridgewater, N.J.); intravenous (femoral vein) pharmaceutical grade antithrombin-III (AT-III, 250 IU/kg, donated by Grifols S.A. (Durham, N.C.); or 3) an equal volume of IV normal saline (0.9% NS, Baxter; Deerfield, Ill.). Doses were administered 0.5 and 24 hours after the CCI (FIG. 1).
(§3) Seventy-one (71) mice were randomly assigned to one of six groups: 1) sham craniotomy and vehicle (VH, 0.9% normal saline, Baxter Healthcare Corporation; Deerfield, Ill.), (SHAM +VEH, n=9); 2) sham craniotomy and ENX (SHAM+ENX, n=8); 3) sham craniotomy and AT-III (SHAM+AT-III, n=9); 4) TBI and vehicle (CCI+VEH, n=19); TBI and ENX (CCI+ENX, n=13); and 6) TBI and AT-III (CCI+AT-III, n=13).
CCI was used to replicate TBI through a well-validated rodent model (16, 17). Briefly, on day 1, mice were anesthetized with intraperitoneal ketamine (Hospira; Lake Forest, Ill.), xylazine (Alcorn; Decatur, Ill.), and acepromazine (Boehringer Ingelheim; St. Joseph, Mo.) (KXA: 100, 10, 1 mg/kg, respectively) and place prone in a stereotactic device. After scalp exposure, a left-sided 4-mm craniotomy was created between bregma and lambda structures using a dental drill (Henry Schein; Melville, N.Y.) without violating the dura. […]
Footage captured under the 488 nm filter was evaluated for fluorescence intensity from FITC-labelled albumin measured in three distinct regions within the vessel (venular intensity) and outside the vessel walls (perivenular intensity) (FIGS. 3A and 3B). […]

[3] = system: CD1 mice, controlled cortical impact (CCI) or sham craniotomy; assay: Brain water content (brain edema, wet-to-dry ratio); format: in vivo; settings: for Contralateral (%) Mean brain water content / Contralateral (%) Median brain water content / Ipsilateral (%) Mean brain water content / Ipsilateral (%) Median brain water content / Ratio (ipsi/contra) brain water content: 48 hours after CCI; for cerebral edema as compared to CCI+VEH: 48 hours, p>0.05
Procedure: as §2, §3
(§4) CCI was used to replicate TBI through a well-validated rodent model (16, 17). Briefly, on day 1, mice were anesthetized with intraperitoneal ketamine (Hospira; Lake Forest, Ill.), xylazine (Alcorn; Decatur, Ill.), and acepromazine (Boehringer Ingelheim; St. Joseph, Mo.) (KXA: 100, 10, 1 mg/kg, respectively) and place prone in a stereotactic device. After scalp exposure, a left-sided 4-mm craniotomy was created between bregma and lambda structures using a dental drill (Henry Schein; Melville, N.Y.) without violating the dura.
Forty-eight hours after CCI, mice were sacrificed and excised brains were separated into injured (ipsilateral) and uninjured (contralateral) hemispheres. Wet weight (WW) was immediately assessed. Dry weight (DW) was assessed after 72 hours of dehydration at 70° C. Tissue water content was calculated using wet-to-dry ratios: % water content=100×(WW−DW)/WW.

[4] = system: CD1 mice, controlled cortical impact (CCI) severe TBI model; assay: Garcia Neurological Test (GNT); format: in vivo; settings: injured (CCI) mice, 24 or 48 hour post-TBI; maximum 18 points; ±SEM
Procedure: as §2, with “1). […]” for “1).”
(§5) Animal body weights (BW) were obtained just before (W0h) as well as 24 and 48 hours after CCI with animal weight loss expressed as a ratio: (W0h-W24h or W48h)/W0h×100%. Murine neurologic function was assessed by the modified Stroke Garcia Neurologic Test (GNT) assessing motor, sensory, reflex, and balance ability at 24 hours and 48 hours after TBI. […]

[5] = system: CD1 mice, controlled cortical impact (CCI) severe TBI model; assay: Pial intravital microscopy: in vivo LEU/EC interactions; settings: pial penumbral microcirculation, 48 hours after CCI, doses 0.5 and 24 hours after CCI, ±SEM
Procedure: as §2, §3, §4
In vivo assessment of cerebral microcirculation using pial intravital microscopy was performed 48 hours after CCI as described previously, as this is the optimal time to observe peak leukocyte mobilization to the BBB penumbra after brain injury. Under KXA anesthesia, the right jugular vein was cannulated and a second 2.5 mm craniotomy was created immediately anterior to the first and covered with a 5 mm coverslip (Fisher Scientific; Waltham, Mass.). […]
Video data captured at 590 nm λ were imported into analysis software (NIS-Elements, Nikon Instruments; Melville, N.Y.) and LEU/EC interactions were counted by a blinded observer quantifying the following parameters: 1) LEU transit: mean number of labelled EU crossing a 100 μm long venular segment in 60 seconds; and 2) LEU adhesion: number of LEU stationary for at least 30 seconds during the recording period. Fluorescently labelled spherical cells measuring 7 to 12 μm were counted as LEU and interactions were reported as the number of cells/100 μm per minute (FIGS. 2A and 2B).

[6] = Body weight loss after CCI; format: in vivo; settings: CCI mice, 48 hours after TBI; (W0h-W48h)/W0h×100%; ±SEM
Procedure: as §2, with “1). […]” for “1).”
as §5

[7] = system: CD1 mice, controlled cortical impact (CCI) severe TBI model; assay: Morris water maze cued learning trials; format: in vivo
Procedure: Experimental procedures were conducted with the approval of the University of Pennsylvania Institutional Animal Care and Use Committee. CD1 adult male mice (25-30 g) (Charles River Laboratories, Wilmington, Mass.) were acclimatized in standard housing with water and chow ad libitum for 7 days before experiments after which they underwent sham craniotomy or craniotomy accompanied by controlled cortical impact (CCI), a well-validated severe TBI rodent model (Pascual et al., Am J Surg. 2013;206(6):840-846; Smith et al., J Neurotrauma. 1995; 12(2):169-178). Mice were anesthetized with intraperitoneal ketamine (Hospira, Lake Forest, Ill.), xylazine (Akorn, Decatur, Ill.), and acepromazine (Boehringer Ingelheim, St. Joseph, Mo.) (100, 10, 1 mg/kg, respectively) followed by subcutaneous bupivacaine (0.5 mg/mL) for longer-term analgesia. After creation of a left-sided, 4-mm craniotomy between bregma and lambda sutures, the exposed left parietotemporal cortex was injured via a controlled cortical impactor (AMS201; AmScien Instruments, Richmond, Va.). Controlled cortical impact settings (3-mm-diameter impactor tip, impact velocity of 6 m/s, and cortical deformation depth of 1 mm) replicated severe TBI (Smith et al., J Neurotrauma. 1995; 12(2):169-178). Rodents were then randomly allocated to receive either: (1) intravenous (via femoral vein) pharmaceutical grade AT-III (250 IU/kg, donated by Grifols S. A., Durham, N.C.) or (2) an equal volume of normal saline IV (0.9% NS; Baxter; Deerfield, Ill.) as a vehicle (VEH). Doses were administered 0.5 and 24 hours after CCI (FIG. 1) as determined by previous published reports and the manufacturer's recommendations (ElSaadani et al., J Trauma Acute Care Surg. 2021; 90(2):274-280; Uchiba et al., Thromb Res. 1998; 89(5):233-241; Uchiba et al., Semin Thromb Hemost. 1997; 23(6):583-590).
Fifteen mice (ElSaadani et al., J Trauma Acute Care Surg. 2021; 90(2):274-280) were randomized into three groups: (1) sham craniotomy (no CCI) plus VEH (SHAM, n=5), (2) TBI and VEH (CCI-VEH, n=5), and (3) TBI and AT-III (CCI−AT-III, n=5).
as §1, with “87(3):552-558). After a recovery period of 6 days, each animal underwent daily. MWM trials of learning and memory for 9 consecutive days.” for “87(3):552-558).”

[8] = system: CD1 mice, controlled cortical impact (CCI) severe TBI model; assay: Morris water maze probe trials (long-term memory); format: in vivo; settings: days 10 to 14 post-TBI, CCI mice vs CCI-VEH
Procedure: Experimental procedures were conducted with the approval of the University of Pennsylvania Institutional Animal Care and Use Committee. CD1 adult male mice (25-30 g) (Charles River Laboratories, Wilmington, Mass.) were acclimatized in standard housing with water and chow ad libitum for 7 days before experiments after which they underwent sham craniotomy or craniotomy accompanied by controlled cortical impact (CCI), a well-validated severe TBI rodent model (Pascual et al., Am J Surg. 2013;206(6):840-846; Smith et al., J Neurotrauma. 1995; 12(2):169-178). […] Doses were administered 0.5 and 24 hours after CCI (FIG. 1) as determined by previous published reports and the manufacturer's recommendations (ElSaadani et al., J Trauma Acute Care Surg. 2021; 90(2):274-280; Uchiba et al., Thromb Res. 1998; 89(5):233-241; Uchiba et al., Semin Thromb Hemost. 1997; 23(6):583-590). […]
as §1

Substance: antithrombin-III [AT-III]
- mean group cumulative swimming time ([1]; all 5 days of spatial learning trials, CCI mice): 17.6 ± 1.5 s
- swimming time (time to reach platform) ([1]; day 13, last day of spatial learning trials, CCI mice): 17.6 ± 3.9 s
- overall swim distance ([1]; spatial learning trials, days 9 to 13, CCI mice): 306.9±27.9 cm
- Cerebrovascular FITC-albumin leakage [2]: 41.9±2.8%
- decrease of macromolecular leakage (blood brain barrier integrity) ([2]; pial vessels, vs untreated injured): more than 25%
- Contralateral (%) Mean brain water content [3]: 75.12%
- Contralateral (%) Median brain water content [3]: 77.7%
- Ipsilateral (%) Mean brain water content [3]: 77.64%
- Ipsilateral (%) Median brain water content [3]: 78.6192%
- Ratio (ipsi/contra) brain water content [3]: 1.033
- cerebral edema as compared to CCI+VEH [3]: did not significantly reduce cerebral edema
- GNT score (stroke functional recovery score) [4]: 13.1±0.3
- LEU adhesion [5]: 3.2±0.5 LEUs/100 um/min
- LEU transit [5]: 24.8±2.1 LEUs/100 um/min
- Body weight loss [6]: 8.4±1%
- time to reach the exposed platform, course over days ([7]; cued learning trials, compared with SHAM): eventually reached SHAM times by day 7
- swimming velocity ([7]; cued learning trials, days 6-8 post-TBI, ±SEM): 28.4 ± 1.1 cm/s
- mean time to reach the platform ([7]; cued learning trials, ±SEM): 20.1 ± 3.1 s
- cumulative cued learning (overall mean group time to reach the platform) ([7]; throughout days 6 to 8 post-TBI, ±SEM): 20.3 ± 2.1 s
- cognitive recovery: memory [8]: not memory

Substance: enoxaparin [ENX, reference compound]
- Cerebrovascular FITC-albumin leakage [2]: 49.1±2.3%
- Contralateral (%) Mean brain water content [3]: 77.26%
- Contralateral (%) Median brain water content [3]: 77.38%
- Ipsilateral (%) Mean brain water content [3]: 78.3674%
- Ipsilateral (%) Median brain water content [3]: 79.03%
- Ratio (ipsi/contra) brain water content [3]: 1.014
- cerebral edema as compared to CCI+VEH [3]: did not significantly reduce cerebral edema
- GNT score (stroke functional recovery score) [4]: 12.4±0.4
- LEU adhesion [5]: 3.5±0.8 LEUs/100 um/min
- LEU transit [5]: 24.9±2.8 LEUs/100 um/min
